Assay results as given in patent US20260062422A1 (Halda Therapeutics OpCo, Inc., priority 2022, published 2026).

Legend:
[1] = test system: VCaP cells; assay: Cellular growth inhibition assay for VCaP cells, CellTiter-Glo; type: cell-based, human; settings: 72 hours treatment, CellTiter-Glo 2.0
How it was run: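 GI50 values come from four-parameter curve fits of luminescence data normalized to a zero baseline. Compound, in medium with 0.5% DMSO, was added one day after plating and left for 72 h before CellTiter-Glo 2.0 addition.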

[2] = test system: T-Rex 293 cell line SC3 cells lacking increased expression of androgen receptor protein; assay: Cellular growth inhibition, T-Rex 293 SC3 cells without doxycycline, CellTiter-Glo; type: cell-based; settings: T-Rex 293 SC3 cells not exposed to doxycycline, CellTiter-Glo 2.0
How it was run: (§1)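 With DMSO (0.5%) vehicle as negative control, compounds treated SC3 cells for 72 h in medium containing charcoal-dextran FBS ± doxycycline. This T-Rex 293 clone expresses transfected wild-type AR on induction. Readout: CellTiter-Glo 2.0; GI50 by nonlinear regression.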

[3] = test system: T-Rex 293 cell line SC3 cells having increased expression of androgen receptor protein due to exposure to doxycycline; assay: Cellular growth inhibition, T-Rex 293 SC3 cells with doxycycline (androgen receptor induced), CellTiter-Glo; type: cell-based; settings: T-Rex 293 SC3 cells with 10 ng/mL doxycycline (increased androgen receptor expression)
How it was run: as §1

Cc1sc2c(c1C)C(c1ccc(OCCOC3CCN(c4ncc(C(=O)N[C@H]5C(C)(C)[C@H](Oc6ccc(C#N)c(Cl)c6)C5(C)C)cn4)CC3)cc1)=N[C@@H](CC(=O)OC(C)(C)C)c1nnc(C)n1-2 [Compound I-235, tert-butyl 2-((S)-4-(4-(2-((1-(5-(((1r,3r)-3-(3-chloro-4-cyanophenoxy)-2,2,4,4-tetramethylcyclobutyl)carbamoyl)pyrimidin-2-yl)piperidin-4-yl)oxy)ethoxy)phenyl)-2,3,9-trimethyl-6H-thieno[3,2-f][1,2,4]triazolo[4,3-a][1,4]diazepin-6-yl)acetate]
GI50 ([1]; Homo sapiens, VCaP, 72 h): < 500 nM | GI50 ([2]; 72 h): > 3000 nM | GI50 ([3]; 72 h): < 500 nM

CCNC(=O)C[C@@H]1N=C(c2ccc(OCC3CN(c4ncc(C(=O)N[C@H]5C(C)(C)[C@H](Oc6ccc(C#N)c(Cl)c6)C5(C)C)cn4)C3)cc2)c2c(sc(C)c2C)-n2c(C)nnc21 [Compound I-71]
GI50 ([1]; Homo sapiens, VCaP, 72 h): < 500 nM | GI50 ([2]; 72 h): 500 to 1500 nM | GI50 ([3]; 72 h): < 500 nM

CCNC(=O)C[C@@H]1N=C(c2ccc(N(C)CC3CN(c4ncc(C(=O)N[C@H]5C(C)(C)[C@H](Oc6ccc(C#N)c(Cl)c6)C5(C)C)cn4)C3)cc2)c2c(sc(C)c2C)-n2c(C)nnc21 [Compound I-107]
GI50 ([1]; Homo sapiens, VCaP, 72 h): < 500 nM | GI50 ([2]; 72 h): 500 to 1500 nM | GI50 ([3]; 72 h): < 500 nM

Cc1sc2c(c1C)C(c1ccc(CC3CC4(CCN(c5ncc(C(=O)N[C@H]6C(C)(C)[C@H](Oc7ccc(C#N)c(Cl)c7)C6(C)C)cn5)CC4)C3)cc1)=N[C@@H](C)c1nnc(C)n1-2 [Compound I-436]
GI50 ([1]; Homo sapiens, VCaP, 72 h): > 3000 nM | GI50 ([2]; 72 h): 1500 to 3000 nM | GI50 ([3]; 72 h): < 500 nM

Cc1sc2c(c1C)C(c1ccc(Cl)cc1)=N[C@@H](CC(=O)NCCOCCOCCOCCOCCN(C)c1ncc(C(=O)N[C@H]3C(C)(C)[C@H](Oc4ccc(C#N)c(Cl)c4)C3(C)C)cn1)c1nnc(C)n1-2 [Compound I-3, N-((1r,3r)-3-(3-chloro-4-cyanophenoxy)-2,2,4,4-tetramethylcyclobutyl)-2-((1-((S)-4-(4-chlorophenyl)-2,3,9-trimethyl-6H-thieno[3,2-f][1,2,4]triazolo[4,3-a][1,4]diazepin-6-yl)-2-oxo-6,9,12,15-tetraoxa-3-azaheptadecan-17-yl)(methyl)amino)pyrimidine-5-carboxamide]
GI50 ([1]; Homo sapiens, VCaP, 72 h): < 500 nM | GI50 ([2]; 72 h): > 3000 nM | GI50 ([3]; 72 h): < 500 nM

CCNC(=O)C[C@@H]1N=C(c2ccc(OC3CCN(C4CCN(c5ncc(C(=O)N[C@H]6C(C)(C)[C@H](Oc7ccc(C#N)c(Cl)c7)C6(C)C)cn5)CC4)C3)cc2)c2c(sc(C)c2C)-n2c(C)nnc21 (some centres unmarked) [Compound I-85]
GI50 ([1]; Homo sapiens, VCaP, 72 h): < 500 nM | GI50 ([2]; 72 h): > 3000 nM | GI50 ([3]; 72 h): < 500 nM

CCNC(=O)C[C@@H]1N=C(c2cccc(OCCOCCOCCOC3CCN(c4ncc(C(=O)N[C@H]5C(C)(C)[C@H](Oc6ccc(C#N)c(Cl)c6)C5(C)C)cn4)CC3)c2)c2c(sc(C)c2C)-n2c(C)nnc21 [Compound I-48, N-((1r,3r)-3-(3-chloro-4-cyanophenoxy)-2,2,4,4-tetramethylcyclobutyl)-2-(4-(2-(2-(2-(3-((S)-6-(2-(ethylamino)-2-oxoethyl)-2,3,9-trimethyl-6H-thieno[3,2-f][1,2,4]triazolo[4,3-a][1,4]diazepin-4-yl)phenoxy)ethoxy)ethoxy)ethoxy)piperidin-1-yl)pyrimidine-5-carboxamide]
GI50 ([1]; Homo sapiens, VCaP, 72 h): < 500 nM | GI50 ([2]; 72 h): 500 to 1500 nM | GI50 ([3]; 72 h): < 500 nM

CCNC(=O)C[C@@H]1N=C(c2ccc(C#CCN3CCN(c4ncc(C(=O)N[C@H]5C(C)(C)[C@H](Oc6ccc(C#N)c(Cl)c6)C5(C)C)cn4)CC3)cc2)c2c(sc(C)c2C)-n2c(C)nnc21 [Compound I-54, N-[3-(3-chloro-4-cyano-phenoxy)-2,2,4,4-tetramethyl-cyclobutyl]-2-[4-[3-[4-[(9S)-9-[2-(ethylamino)-2-oxo-ethyl]-4,5,13-trimethyl-3-thia-1,8,11,12-tetrazatricyclo[8.3.0.02,6]trideca-2(6),4,7,10,12-pentaen-7-yl]phenyl]prop-2-ynyl]piperazin-1-yl]pyrimidine-5-carboxamide]
GI50 ([1]; Homo sapiens, VCaP, 72 h): < 500 nM | GI50 ([2]; 72 h): 500 to 1500 nM | GI50 ([3]; 72 h): < 500 nM

CCNC(=O)C[C@@H]1N=C(c2ccc(N3CC(N(C)C4CN(c5ncc(C(=O)N[C@H]6C(C)(C)[C@H](Oc7ccc(C#N)c(Cl)c7)C6(C)C)cn5)C4)C3)cc2)c2c(sc(C)c2C)-n2c(C)nnc21 [Compound I-121]
GI50 ([1]; Homo sapiens, VCaP, 72 h): < 500 nM | GI50 ([2]; 72 h): 500 to 1500 nM | GI50 ([3]; 72 h): < 500 nM

Cc1sc2c(c1C)C(c1ccc(Cl)cc1)=N[C@H](CC(=O)NCCOCCOCCOCCOCCOC1CCN(c3ncc(C(=O)N[C@H]4C(C)(C)[C@H](Oc5ccc(C#N)c(Cl)c5)C4(C)C)cn3)CC1)c1nnc(C)n1-2 [Compound I-14]
GI50 ([1]; Homo sapiens, VCaP, 72 h): > 3000 nM | GI50 ([2]; 72 h): > 3000 nM | GI50 ([3]; 72 h): > 3000 nM

CCN(C)C(=O)C[C@@H]1N=C(c2ccc(CCCOC3CCN(c4ncc(C(=O)N[C@H]5C(C)(C)[C@H](Oc6ccc(C#N)c(Cl)c6)C5(C)C)cn4)CC3)cc2)c2c(sc(C)c2C)-n2c(C)nnc21 [Compound I-101]
GI50 ([1]; Homo sapiens, VCaP, 72 h): > 3000 nM | GI50 ([2]; 72 h): > 3000 nM | GI50 ([3]; 72 h): < 500 nM

Cc1sc2c(c1C)C(c1ccc(OC3CC4(CCN(c5ncc(C(=O)N[C@H]6C(C)(C)[C@H](Oc7ccc(C#N)c(Cl)c7)C6(C)C)cn5)CC4)C3)cc1)=NC(Cc1ncco1)c1nnc(C)n1-2 (some centres unmarked) [Compound I-166]
GI50 ([1]; Homo sapiens, VCaP, 72 h): < 500 nM | GI50 ([2]; 72 h): 500 to 1500 nM | GI50 ([3]; 72 h): < 500 nM

CCNC(=O)C[C@@H]1N=C(c2ccc(N(C)C3CN(CC4CCN(c5ncc(C(=O)N[C@H]6C(C)(C)[C@H](Oc7ccc(C#N)c(Cl)c7)C6(C)C)cn5)CC4)C3)cc2)c2c(sc(C)c2C)-n2c(C)nnc21 [Compound I-119]
GI50 ([1]; Homo sapiens, VCaP, 72 h): 500 to 1500 nM | GI50 ([2]; 72 h): 500 to 1500 nM | GI50 ([3]; 72 h): < 500 nM

Cc1sc2c(c1C)C(c1ccc(CC3CC4(CCN(c5ncc(C(=O)N[C@H]6C(C)(C)[C@H](Oc7ccc(C#N)c(Cl)c7)C6(C)C)cn5)CC4)C3)cc1)=N[C@@H](C)c1nnc(C)n1-2 [Compound I-303]
GI50 [1]: 1500 to 3000 nM

Cc1sc2c(c1C)C(c1ccc(Cl)cc1)=N[C@@H](CC(=O)NCCCCCOC1CCN(c3ncc(C(=O)N[C@H]4C(C)(C)[C@H](Oc5ccc(C#N)c(Cl)c5)C4(C)C)cn3)CC1)c1nnc(C)n1-2 [Compound I-22, N-((1r,3r)-3-(3-chloro-4-cyanophenoxy)-2,2,4,4-tetramethylcyclobutyl)-2-(4-((5-(2-((S)-4-(4-chlorophenyl)-2,3,9-trimethyl-6H-thieno[3,2-A][1,2,4]triazolo[4,3-a][1,4]diazepin-6-yl)acetamido)pentyl)oxy)piperidin-1-yl)pyrimidine-5-carboxamide]
GI50 [1]: < 500 nM | GI50 ([2]; 72 hours): > 3000 nM | GI50 ([3]; 72 hours): < 500 nM

Cc1sc2c(c1C)C(c1ccc(Cl)cc1)=N[C@@H](CC(=O)NCCN(C)c1ncc(C(=O)N[C@H]3C(C)(C)[C@H](Oc4ccc(C#N)c(Cl)c4)C3(C)C)cn1)c1nnc(C)n1-2 [Compound I-1, N-[3-(3-chloro-4-cyano-phenoxy)-2,2,4,4-tetramethyl-cyclobutyl]-2-[2-[[2-[(9S)-7-(4-chlorophenyl)-4,5,13-trimethyl-3-thia-1,8,11,12-tetrazatricyclo[8.3.0.02,6]trideca-2(6),4,7,10,12-pentaen-9-yl]acetyl]amino]ethyl-methyl-amino]pyrimidine-5-carboxamide]
GI50 ([2]; 72 h): 1500 to 3000 nM | GI50 ([3]; 72 h): 1500 to 3000 nM

Cc1sc2c(c1C)C(c1ccc(Cl)cc1)=N[C@@H](CC(=O)NCCOCCOCCOCC1CCN(c3ncc(C(=O)N[C@H]4C(C)(C)[C@H](Oc5ccc(C#N)c(Cl)c5)C4(C)C)cn3)CC1)c1nnc(C)n1-2 [Compound I-17]
GI50 ([2]; 72 h): 500 to 1500 nM | GI50 ([3]; 72 h): < 500 nM
